Patent publication US20110319392A1, “Thiazole Sulfonamide And Oxazole Sulfonamide Kinase Inhibitors” (priority 2009, published 2011)

What was measured:
EGFR = biological target: T1, EGFR (Homo sapiens, UniProt P00533); experiment: EGFR substrate phosphorylation assay (HTRF); assay type: biochemical
T1 construct: made in house; host or cells: baculovirus expression system
Protocol: (§1) Compounds of the present invention were tested for EGFR and ErbB-2 protein tyrosine kinase inhibitory activity in substrate phosphorylation assays using enzymes purified from a baculovirus expression system. Reagent production was conducted essentially as described in Brignola, P. S., et al, (2002) J. Biol. Chem. 277(2):1576-1585.
(§2) The method measures the ability of the isolated enzyme to catalyse the transfer of the gamma-phosphate from ATP onto the tyrosine residue of a biotinylated synthetic peptide referenced “Peptide C” in Brignola, P. S., et al, (2002) J. Biol. Chem. 277(2):1576-1585. The extent of tyrosine phosphorylation was measured using an anti-phosphotyrosine antibody, and quantified by homogenous time-resolved fluorescence (HTRF).
(§3) Reactions were performed in black 384-well polystyrene flat-bottom plates in a final volume of 20 μL. Assays were performed by adding 10 μL of each of the following solutions, Substrate Mix and Enzyme Mix: The Substrate Mix contained 100 mM 3-[N-morpholino]propanesulfonic acid (MOPS) (pH 7.5), 2 mM MnCl2, 20 μM ATP, 0.01% Tween-20, 0.1 mg/mL (BSA), 0.8 uM peptide substrate, and 1 mM dithiothreitol. The Enzyme Mix contained 100 mM MOPS (pH7.5); 0.01% Tween-20; 0.1 mg/mL BSA, and either 0.8 nM EGFR, 10 nM ErbB2, or 1 nM ErbB4. The Enzyme Mix was added to the compound plates and the plates were incubated at 20° C. for 1 hr. The reactions were then started by adding the Substrate Mix.
(§4) After initiating the reaction with the method described above, the reactions were allowed to proceed for 90 minutes at 20° C. The reactions were then terminated by the addition of 20 μL 100 mM EDTA to each well. 40 μL/well of HTRF detection mix were added to the assay plates. The final concentrations of the detection reagents were: 100 mM HEPES (pH7.5), 0.1 mg/mL BSA, 15 nM streptavidin-labeled allophycocyanin (PerkinElmer), and 1 nM europium-labeled anti-phosphotyrosine antibody (Perkin Elmer). Assay plates were left unsealed and were counted in a Wallac Multilabel Counter 1420 (PerkinElmer).
(§5) Compounds under analysis were dissolved in dimethylsulfoxide (DMSO) to 1.0 mM and serially diluted 1 to 3 with DMSO through twelve dilutions. 1 μL of each concentration was transferred to the corresponding well of an assay plate. This creates a final compound concentration range from 0.00027 to 47.6 μM.
(§6) The data for dose responses were plotted as % Inhibition calculated with the data reduction formula 100*(1-(U1−C2)/(C1−C2)) versus concentration of compound where U1 is the unknown value, C1 is the average control value obtained for 4.76% DMSO, and C2 is the average control value obtained for 0.035 M EDTA. Data were fitted with a curve described by:
(§7) where Vmax is the upper asymptote, Y2 is the Y intercept, and K is the IC50. The results for each compound were recorded as pIC50s, calculated as follows: […]

SK-MEL-28 tumor cells = experiment: Cell growth inhibition assay (CellTiter-Glo), SK-MEL-28; assay type: cell-based, Human; conditions: Homo sapiens, SK-MEL-28, 72 h; 3 days incubation
Protocol: (§8) Human breast tumor cells (BT474) were cultured in RPMI (Mediatech […]), containing 10% FBS (JRH Biosciences 12176) and 1% penicillin-streptomycin (Invitrogen 15140). Human head and neck tumor cells (HN5) were cultured in high glucose DMEM (Mediatech 50-013-PB) containing 10% FBS and 1% penicillin-streptomycin. Human colon tumor cells (Colo205) were cultured in RPMI (Mediatech 50-020-PB) containing 10% FBS and 1% penicillin-streptomycin. Human melanoma cancer cells (SK-MEL-28) were cultured in EMEM with nonessential amino acids (Mediatech 50-011-PB) containing 10% FBS, 1% sodium pyruvate (JT Baker 3354-04), and 1% penicillin-streptomycin. Human melanoma cancer cells (A375P F11s) were cultured in RPMI (Mediatech 50-020-PB) containing 10% FBS, 1% sodium pyruvate, and 1% penicillin-streptomycin. Human colon cancer cells (HT-29) were cultured in high glucose DMEM (Mediatech 50-013-PB) containing 10% FBS and 1% penicillin-streptomycin. Human melanoma cancer cells (SK-MEL-3) were cultured in McCoy's 5A (50-025-PB) containing 15% FBS, and 1% penicillin-streptomycin. All cell lines were maintained at 37° C. in a humidified 5% CO2, 95% air incubator. Cells were harvested using trypsin/EDTA (Invitrogen 25200), counted using a haemocytometer, and plated. For 96-well assays (using white full-area NUNC plates cat. #136102), cells were plated in 105 μL at the following densities (cells/well): HNS, 500; Colo 205, 500; SK-MEL-28, 500; A375P F11s, 500; HT-29, 500; SK-MEL-3, 500; and BT474, 3000. For 384-well assays (white full-area NUNC plates, cat. #781080), cells were plated in 48 μL at the following densities (cells/well): HNS, 500; Colo205, 500; SK-MEL-28, 500; A375P F11s, 500; HT-29, 500; SK-MEL-3, 500; and BT474, 2000.
(§9) The next day, compounds were diluted as follow: For 96-well assays, 13.5 μL of compound in DMSO were diluted using nine (9) serial 1:3 dilutions of 4.5 μL in 9 of DMSO. Medium (270 μL/well of RPMI with 10% FBS and 1% penicillin-streptomycin) was added to the plates. Aliquots (7 μL) were added to cells in the final assay giving a final DMSO concentration of 0.2%. For 384-well assays, 15 μL of compound in DMSO were diluted using nine (9) serial 1:3 dilutions of 5 μL in 10 μL of DMSO, followed by a further dilution of 5 μL of compound with 95 μL of medium, of which 2 μL were added to cells in the final assay giving a final DMSO concentration of 0.2%. Cells were incubated at 37° C., 5% CO2 for 3 days.
(§10) Total ATP was measured (as a surrogate estimate of cell number) using CellTiter-Glo® reagent (Promega G7571). Briefly, plates were removed from the incubator and allowed to equilibrate to room temperature for 30 minutes. CellTiter-Glo® (25 μL or 55 μL for 384-well or 96-well assays, respectively) reagent was added to each well and plates were shaken on an orbital plate shaker for 2 minutes. Plates were incubated without shaking for a further 30 minutes and read on an LJL Analyst GT reader in luminometer mode with an integration time of 0.5 seconds per well. Percent inhibition of cell growth was calculated relative to DMSO vehicle-treated control wells. Concentration of compound required to give 50% inhibition of vehicle-treated control cell growth (IC50) was interpolated using a 4-parameter fit for determining IC50 using the following equation: Y=A +((B−A)/(1+((C/X)̂D))) where […].

ErbB2 = biological target: T2, ErbB2 (Homo sapiens, UniProt P04626); experiment: ErbB-2 substrate phosphorylation assay (HTRF); assay type: biochemical
T2 construct: made in house; host or cells: baculovirus expression system
T2 sequence (P04626 23-1255): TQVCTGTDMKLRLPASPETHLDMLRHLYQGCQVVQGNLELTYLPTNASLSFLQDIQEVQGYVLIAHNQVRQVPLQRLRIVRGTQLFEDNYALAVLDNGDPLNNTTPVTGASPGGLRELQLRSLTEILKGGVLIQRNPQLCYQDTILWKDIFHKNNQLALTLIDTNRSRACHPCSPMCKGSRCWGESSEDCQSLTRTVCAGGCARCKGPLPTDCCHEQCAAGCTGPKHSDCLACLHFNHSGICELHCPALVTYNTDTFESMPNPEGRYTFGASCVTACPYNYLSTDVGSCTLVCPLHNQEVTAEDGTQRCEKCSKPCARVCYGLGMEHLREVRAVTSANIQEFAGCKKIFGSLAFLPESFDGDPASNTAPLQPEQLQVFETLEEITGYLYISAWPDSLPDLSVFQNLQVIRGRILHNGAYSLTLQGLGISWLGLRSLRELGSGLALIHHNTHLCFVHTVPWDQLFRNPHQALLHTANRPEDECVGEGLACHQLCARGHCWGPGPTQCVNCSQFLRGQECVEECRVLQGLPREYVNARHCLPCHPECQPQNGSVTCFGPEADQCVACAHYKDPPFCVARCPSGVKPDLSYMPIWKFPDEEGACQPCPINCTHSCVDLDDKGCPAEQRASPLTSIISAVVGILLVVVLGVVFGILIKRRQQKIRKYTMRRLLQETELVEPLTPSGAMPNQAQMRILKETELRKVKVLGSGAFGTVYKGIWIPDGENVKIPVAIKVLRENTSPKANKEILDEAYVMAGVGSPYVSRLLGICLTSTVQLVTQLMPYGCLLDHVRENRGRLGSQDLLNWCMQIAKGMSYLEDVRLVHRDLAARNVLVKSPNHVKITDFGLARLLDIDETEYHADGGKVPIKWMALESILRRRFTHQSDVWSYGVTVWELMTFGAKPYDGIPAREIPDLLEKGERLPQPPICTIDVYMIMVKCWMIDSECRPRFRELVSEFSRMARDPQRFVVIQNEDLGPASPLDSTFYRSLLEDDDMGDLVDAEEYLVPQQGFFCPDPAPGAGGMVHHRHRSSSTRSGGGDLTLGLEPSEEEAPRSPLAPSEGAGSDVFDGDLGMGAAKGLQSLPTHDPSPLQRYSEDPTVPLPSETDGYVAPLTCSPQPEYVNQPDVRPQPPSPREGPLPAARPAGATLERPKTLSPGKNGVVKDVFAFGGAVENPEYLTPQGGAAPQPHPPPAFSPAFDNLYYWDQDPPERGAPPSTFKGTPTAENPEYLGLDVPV
Protocol: as §1, §2, §3, §4, §5, §6, §7

B-Raf = B-Raf (Homo sapiens, UniProt P15056); experiment: B-Raf Accelerated MEK ATPase assay (BRAMA), Method A or B; assay type: biochemical; conditions: Method B: final MEK 150 nM, single end point read
Sequence of B-Raf (P15056 whole entry): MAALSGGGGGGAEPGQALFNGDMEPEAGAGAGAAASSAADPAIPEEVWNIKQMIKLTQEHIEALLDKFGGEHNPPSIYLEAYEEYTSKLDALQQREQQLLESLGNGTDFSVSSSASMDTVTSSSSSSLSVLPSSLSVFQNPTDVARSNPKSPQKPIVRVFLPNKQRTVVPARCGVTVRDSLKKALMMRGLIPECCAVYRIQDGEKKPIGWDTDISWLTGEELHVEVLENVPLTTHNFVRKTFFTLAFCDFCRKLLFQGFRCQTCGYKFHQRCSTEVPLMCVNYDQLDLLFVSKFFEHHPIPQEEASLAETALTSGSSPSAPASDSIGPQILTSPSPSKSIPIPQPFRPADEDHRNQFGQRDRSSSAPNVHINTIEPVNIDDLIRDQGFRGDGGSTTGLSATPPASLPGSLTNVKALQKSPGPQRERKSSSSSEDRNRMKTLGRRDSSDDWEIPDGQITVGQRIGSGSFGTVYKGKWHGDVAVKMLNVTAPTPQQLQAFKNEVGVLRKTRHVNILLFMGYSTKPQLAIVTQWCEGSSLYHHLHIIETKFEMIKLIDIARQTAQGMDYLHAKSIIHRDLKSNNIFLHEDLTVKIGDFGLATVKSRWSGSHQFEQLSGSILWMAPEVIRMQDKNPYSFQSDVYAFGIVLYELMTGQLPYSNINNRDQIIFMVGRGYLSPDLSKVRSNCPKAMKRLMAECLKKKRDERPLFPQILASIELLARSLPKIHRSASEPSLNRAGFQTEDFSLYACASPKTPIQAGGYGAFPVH
Protocol: Compounds of the present invention were tested for B-Raf protein serine kinase inhibitory activity in a B-Raf Accelerated MEK ATPase assay (BRAMA). The BRAMA assay is a high sensitivity assay which measures an intrinsic MEK-mediated ATP hydrolysis uncoupled from downstream ERK phosphorylation by coupling the formation of ADP to NADH oxidation through the enzymes pyruvate kinase and lactate dehydrogenase. When ADP production is initiated by addition of catalytic amounts of an activated Raf enzyme and non-phosphorylated MEK, one observes robust ADP production concomitant with Raf-mediated phosphorylation of MEK.
Method A: Specific details of the assay are disclosed in: C. Rominger, M. Schaber, E. May. Assay for B-Raf Activity Based on Intrinsic MEK ATPase Activity. Statutory Invention Registration 11/084,993 (March, 2005). Method B: The method is the same as method A, but includes the following changes: 1) the assay was performed with a final MEK concentration of 150 nM and 2) the assay was read as single end point instead of a kinetic read.

Colo205 tumor cells = experiment: Cell growth inhibition assay (CellTiter-Glo), Colo205; assay type: cell-based, Human; conditions: Homo sapiens, COLO 205, 72 h; 3 days incubation
Protocol: as §8, §9, §10

T1 sequence (P00533 25-1210): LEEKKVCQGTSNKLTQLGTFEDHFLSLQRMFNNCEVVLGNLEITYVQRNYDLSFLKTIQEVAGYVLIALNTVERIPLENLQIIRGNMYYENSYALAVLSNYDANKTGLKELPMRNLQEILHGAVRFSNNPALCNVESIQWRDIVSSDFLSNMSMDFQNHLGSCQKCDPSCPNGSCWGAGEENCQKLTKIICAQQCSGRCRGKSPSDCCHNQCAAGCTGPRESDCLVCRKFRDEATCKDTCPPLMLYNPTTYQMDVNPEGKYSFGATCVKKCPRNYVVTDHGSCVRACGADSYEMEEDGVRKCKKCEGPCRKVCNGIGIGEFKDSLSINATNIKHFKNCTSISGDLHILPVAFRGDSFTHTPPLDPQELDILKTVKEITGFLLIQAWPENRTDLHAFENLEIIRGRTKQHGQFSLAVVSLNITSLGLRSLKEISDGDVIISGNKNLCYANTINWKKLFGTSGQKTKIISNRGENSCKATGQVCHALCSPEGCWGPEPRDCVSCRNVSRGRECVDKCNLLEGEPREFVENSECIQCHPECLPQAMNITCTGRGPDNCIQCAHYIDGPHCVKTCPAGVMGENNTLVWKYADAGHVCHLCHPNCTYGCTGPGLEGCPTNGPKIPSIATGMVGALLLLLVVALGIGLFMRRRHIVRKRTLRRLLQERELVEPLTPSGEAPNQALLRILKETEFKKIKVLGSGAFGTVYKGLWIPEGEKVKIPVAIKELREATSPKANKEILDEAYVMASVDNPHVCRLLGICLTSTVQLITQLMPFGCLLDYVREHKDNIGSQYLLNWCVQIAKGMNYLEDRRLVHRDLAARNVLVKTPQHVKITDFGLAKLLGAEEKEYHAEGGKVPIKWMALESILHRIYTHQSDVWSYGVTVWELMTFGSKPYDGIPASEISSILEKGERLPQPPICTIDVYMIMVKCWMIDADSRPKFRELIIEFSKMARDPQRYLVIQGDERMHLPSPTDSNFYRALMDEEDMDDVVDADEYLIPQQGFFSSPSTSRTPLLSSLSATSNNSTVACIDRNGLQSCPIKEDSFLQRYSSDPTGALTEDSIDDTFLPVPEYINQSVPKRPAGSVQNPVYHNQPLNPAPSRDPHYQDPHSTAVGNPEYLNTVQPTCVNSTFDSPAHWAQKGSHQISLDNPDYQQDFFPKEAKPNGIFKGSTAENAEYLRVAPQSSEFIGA

IC50 (EGFR) [µM]	IC50 (SK-MEL-28 tumor cells) [µM]	IC50 (ErbB2) [µM]	IC50 (B-Raf) [µM]	IC50 (Colo205 tumor cells) [µM]	Structure (SMILES)
0.1 to 1	> 1	< 0.1	< 0.1	> 1	Nc1nc(-c2ccc(F)c(NS(=O)(=O)c3c(F)cccc3F)c2)c(-c2ccnc(Nc3ccc(N4CCOCC4)nc3)n2)s1 [Example 64]
> 1	0.1 to 1	0.1 to 1	0.1 to 1	0.1 to 1	CCc1nc(-c2ccc(F)c(NS(=O)(=O)c3ccccc3)c2)c(-c2ccnc(Nc3ccc(N4CCN(CCS(C)(=O)=O)CC4)c(F)c3)n2)s1 [Example 67]
0.1 to 1	> 1	0.1 to 1	0.1 to 1	> 1	CCc1nc(-c2cccc(CNS(=O)(=O)c3ccccc3)c2)c(-c2ccnc(Nc3ccc(N4CCN(C(C)=O)CC4)nc3)n2)s1 [Example 68]
0.1 to 1	> 1	0.1 to 1	0.1 to 1	> 1	CCc1nc(-c2ccc(F)c(NS(=O)(=O)c3ccccc3)c2)c(-c2ccnc(Nc3ccc(N4CCN(C(C)C)CC4)cc3OC)n2)s1 [Example 69]
> 1	> 1	> 1	0.1 to 1	> 1	COc1cc(C)ccc1S(=O)(=O)Nc1cccc(-c2nc(C(C)C)sc2-c2ccnc(Nc3ccc(N4CCN(C(C)=O)CC4)nc3)n2)c1 [Example 76]
> 1	> 1	> 1	0.1 to 1	> 1	CC(C)c1nc(-c2cccc(NS(=O)(=O)Cc3ccccc3)c2)c(-c2ccnc(Nc3ccc(N4CCOCC4)c(F)c3)n2)s1 [Example 86]
> 1	0.1 to 1	> 1	< 0.1	0.1 to 1	COc1c(Nc2nccc(-c3sc(C(C)C)nc3-c3cccc(NS(=O)(=O)c4c(F)cccc4F)c3)n2)ccc(N2CCN(CCS(C)(=O)=O)CC2)c1C [Example 90]
> 1	0.1 to 1	> 1	0.1 to 1	0.1 to 1	CC(C)(F)c1nc(-c2ccc(F)c(NS(=O)(=O)c3c(F)cccc3F)c2)c(-c2ccnc(Nc3ccc(N4CCOCC4)nc3)n2)s1 [Example 103]
> 1	> 1	> 1	0.1 to 1	0.1 to 1	COc1ccc(S(=O)(=O)Nc2cccc(-c3nc(C(C)C)sc3-c3ccnc(Nc4ccc(N5CCOCC5)nc4)n3)c2)cc1OC [Example 104]
> 1	> 1	0.1 to 1	0.1 to 1	0.1 to 1	Cc1cc(S(=O)(=O)Nc2cccc(-c3nc(C(C)C)sc3-c3ccnc(Nc4ccc(N5CCOCC5)nc4)n3)c2)c(F)cc1Cl [Example 105]
> 1	> 1	> 1	< 0.1	0.1 to 1	COc1cc(N2CCC(CCS(C)(=O)=O)CC2)c(C)cc1Nc1nccc(-c2sc(C(C)C)nc2-c2ccnc(NS(=O)(=O)c3c(F)cccc3F)c2)n1 [Example 108]
> 1	> 1	> 1	< 0.1	0.1 to 1	COC(=O)c1ccc(S(=O)(=O)Nc2cccc(-c3nc(C(C)C)sc3-c3ccnc(Nc4ccc(N5CCOCC5)nc4)n3)c2)o1 [Example 110]
0.1 to 1	> 1	0.1 to 1	0.1 to 1	> 1	Cc1ccc(-c2nc(C(C)C)sc2-c2ccnc(Nc3ccc(N4CCOCC4)nc3)n2)cc1NS(=O)(=O)c1c(F)cccc1F [Example 111]
0.1 to 1	> 1	0.1 to 1	0.1 to 1	> 1	COc1cc2c(cc1Nc1nccc(-c3sc(C(C)C)nc3-c3cccc(NS(=O)(=O)c4c(F)cccc4F)c3)n1)N(C(=O)CN(C)C)CC2 [Example 118]
< 0.1	< 0.1	< 0.1	< 0.1	0.1 to 1	COc1cc(N2CCN(CCS(C)(=O)=O)CC2)c(C)cc1Nc1nccc(-c2sc(C(C)C)nc2-c2cccc(NS(=O)(=O)c3c(F)cccc3F)c2F)n1 [Example 125]
< 0.1	0.1 to 1	0.1 to 1	0.1 to 1	0.1 to 1	COc1cc(N2CCN(CCS(C)(=O)=O)CC2)c(C)cc1Nc1nccc(-c2sc(C)nc2-c2cccc(NS(=O)(=O)c3c(F)cccc3F)c2)n1 [Example 134]
